From ChEMBL document CHEMBL1201862, “PubChem BioAssay data set” (2004)
Calls of active or inactive are those of the source.

Legend:
[1] = molecular target: T1, Endoribonuclease toxin MazF (Escherichia coli K-12, UniProt P0AE70); assay: MazF toxin RNase activators, dose response, biochemical, fluorescence, single-stranded RNA substrate, uHTS hits (AID 588481); assay type: functional
T1 sequence (P0AE70 whole entry): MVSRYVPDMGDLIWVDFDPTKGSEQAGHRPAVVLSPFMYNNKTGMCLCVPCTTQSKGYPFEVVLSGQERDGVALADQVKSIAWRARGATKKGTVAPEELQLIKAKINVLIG

[2] = A cytotoxicity screen of small molecule inhibitors of the PhoP region in Salmonella typhi identified in the primary screen. [Related pubchem assays: 1850, 1864, 1985 ]; assay type: functional
[3] = molecular target: T2, DNA repair protein RAD52 homolog (Homo sapiens, UniProt P43351); assay type: functional, biochemical
T2 sequence (P43351 whole entry): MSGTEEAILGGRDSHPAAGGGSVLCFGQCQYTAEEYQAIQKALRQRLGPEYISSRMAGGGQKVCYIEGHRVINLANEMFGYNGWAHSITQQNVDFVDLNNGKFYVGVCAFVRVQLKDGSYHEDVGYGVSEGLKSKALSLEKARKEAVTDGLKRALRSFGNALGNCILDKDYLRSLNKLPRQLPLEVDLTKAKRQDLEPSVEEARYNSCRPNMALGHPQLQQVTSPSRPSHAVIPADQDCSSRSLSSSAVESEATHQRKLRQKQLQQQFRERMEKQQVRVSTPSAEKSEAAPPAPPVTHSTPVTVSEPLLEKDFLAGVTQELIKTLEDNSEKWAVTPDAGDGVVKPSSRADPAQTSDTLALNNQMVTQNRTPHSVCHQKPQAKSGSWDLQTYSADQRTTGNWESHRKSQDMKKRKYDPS

[4] = molecular target: T3, Ubiquitin-conjugating enzyme E2 N (Homo sapiens, UniProt P61088); assay type: functional
T3 sequence (P61088 whole entry): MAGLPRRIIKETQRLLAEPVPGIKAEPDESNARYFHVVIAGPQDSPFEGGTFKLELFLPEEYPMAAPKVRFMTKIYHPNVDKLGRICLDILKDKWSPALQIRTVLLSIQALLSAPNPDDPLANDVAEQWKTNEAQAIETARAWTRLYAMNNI

[5] = Cytotoxicity screening for potential Inhibitors of Bacterial Capsule Biogenesis. [Related pubchem assays (depositor defined):AID488970]; assay type: functional
CAAX prenyl protease 2 = molecular target: T4, CAAX prenyl protease 2 (Homo sapiens, UniProt Q9Y256); assay: human Rce1 protease inhibitors, dose response, biochemical, yeast membranes, quenched-peptide fluorescence, cherry-pick (AID 588849)
T4 sequence (Q9Y256 whole entry): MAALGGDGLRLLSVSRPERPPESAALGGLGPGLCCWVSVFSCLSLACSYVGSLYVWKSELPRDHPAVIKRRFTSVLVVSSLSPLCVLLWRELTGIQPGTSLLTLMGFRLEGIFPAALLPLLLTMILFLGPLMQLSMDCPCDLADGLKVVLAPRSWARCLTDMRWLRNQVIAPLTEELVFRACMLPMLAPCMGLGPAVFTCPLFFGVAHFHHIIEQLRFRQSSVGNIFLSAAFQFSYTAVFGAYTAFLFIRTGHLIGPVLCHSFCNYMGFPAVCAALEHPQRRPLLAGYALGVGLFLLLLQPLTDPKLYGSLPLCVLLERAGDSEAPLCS

[6] = NIH-3T3 fibroblast cytotoxicity, dose response, cytotoxicity control, cell-based, fluorescence, Alamar Blue, secondary assay (AID 2327); assay type: functional;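 also: NIH-3T3 mouse fibroblasts cultured with fluconazole at 8 µg/mL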
[7] = C. albicans growth with fluconazole, confirmation, fluorescence, retest (AID 2467); assay type: functional, cell-based
Streptococcus = assay: Group A Streptococcus viability loss, dose response, counter-screen for streptokinase expression inhibitor project, luminescence, BacTiterGlo (AID 1915); assay type: functional, organism-based;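 also: potency for reduction of bacterial viability or growth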
Escherichia coli = assay: microbe, parasite or virus in culture
Bcl-2-related protein A1 = molecular target: T5, Bcl-2-related protein A1 (Mus musculus, UniProt Q07440); assay type: functional;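 also: confirmatory dose–response counterscreen on Bfl-1, used to check hits from a UBC13 polyubiquitin inhibitor campaign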
T5 sequence (Q07440 whole entry): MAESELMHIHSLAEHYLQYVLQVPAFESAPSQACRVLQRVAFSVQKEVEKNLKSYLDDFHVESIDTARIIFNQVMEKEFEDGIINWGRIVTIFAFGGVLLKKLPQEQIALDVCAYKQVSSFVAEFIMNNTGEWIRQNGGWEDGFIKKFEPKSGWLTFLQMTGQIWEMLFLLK

Trypsin = Trypsin (Sus scrofa, UniProt P00761); assay: porcine trypsin inhibitors, dose response, selectivity assay for Rce1 protease inhibitor project, biochemical, quenched peptide fluorescence, cherry-pick (AID 488789)
Chain of Trypsin (P00761 whole entry): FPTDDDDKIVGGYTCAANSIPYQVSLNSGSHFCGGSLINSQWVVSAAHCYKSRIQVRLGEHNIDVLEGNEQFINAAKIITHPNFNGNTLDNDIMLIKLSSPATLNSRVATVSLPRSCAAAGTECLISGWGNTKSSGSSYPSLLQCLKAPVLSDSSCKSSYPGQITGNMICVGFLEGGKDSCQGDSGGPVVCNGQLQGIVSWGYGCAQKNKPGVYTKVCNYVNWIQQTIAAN

[8] = molecular target: T6, Rac GTPase-activating protein 1 (Homo sapiens, UniProt Q9H0H5); assay: MgcRacGAP GTPase-activating activity inhibitors, confirmation, biochemical, ADP Hunter fluorescence, primary and confirmatory (AID 624330); assay type: functional
T6 sequence (Q9H0H5 whole entry): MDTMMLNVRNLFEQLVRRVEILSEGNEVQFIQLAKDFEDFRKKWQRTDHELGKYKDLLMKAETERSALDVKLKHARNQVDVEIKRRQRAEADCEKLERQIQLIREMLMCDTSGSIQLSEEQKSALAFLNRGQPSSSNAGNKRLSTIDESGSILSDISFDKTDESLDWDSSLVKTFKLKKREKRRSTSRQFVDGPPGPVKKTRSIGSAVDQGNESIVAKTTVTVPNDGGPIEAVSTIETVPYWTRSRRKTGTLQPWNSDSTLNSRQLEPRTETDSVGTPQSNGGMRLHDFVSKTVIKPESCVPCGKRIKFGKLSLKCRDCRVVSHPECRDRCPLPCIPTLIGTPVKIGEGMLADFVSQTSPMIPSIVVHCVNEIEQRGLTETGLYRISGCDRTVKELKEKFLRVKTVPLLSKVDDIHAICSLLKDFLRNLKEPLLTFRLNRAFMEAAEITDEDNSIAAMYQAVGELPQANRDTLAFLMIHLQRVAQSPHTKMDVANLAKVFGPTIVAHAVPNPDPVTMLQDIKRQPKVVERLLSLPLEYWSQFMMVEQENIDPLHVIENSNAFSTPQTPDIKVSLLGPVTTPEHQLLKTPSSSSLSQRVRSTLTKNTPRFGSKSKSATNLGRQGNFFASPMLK

[9] = molecular target: T1, Endoribonuclease toxin MazF; assay: fluorescent RNA oligo signal without MazF, dose response, counter-screen for MazEF activator project, biochemical, fluorescence, single-stranded RNase substrate (AID 588502); assay type: functional
Streptokinase A = molecular target: T7, Streptokinase A (Streptococcus pyogenes serotype M1, UniProt P10520); assay: S. pyogenes streptokinase expression inhibitors, potency, dose response, plasminogen activation absorbance, OD405 (AID 1914); assay type: functional, Streptococcus pyogenes M1 GAS;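 also: secreted streptokinase activity via plasminogen activation per viability signal from cell pellet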
T7 sequence (P10520 whole entry): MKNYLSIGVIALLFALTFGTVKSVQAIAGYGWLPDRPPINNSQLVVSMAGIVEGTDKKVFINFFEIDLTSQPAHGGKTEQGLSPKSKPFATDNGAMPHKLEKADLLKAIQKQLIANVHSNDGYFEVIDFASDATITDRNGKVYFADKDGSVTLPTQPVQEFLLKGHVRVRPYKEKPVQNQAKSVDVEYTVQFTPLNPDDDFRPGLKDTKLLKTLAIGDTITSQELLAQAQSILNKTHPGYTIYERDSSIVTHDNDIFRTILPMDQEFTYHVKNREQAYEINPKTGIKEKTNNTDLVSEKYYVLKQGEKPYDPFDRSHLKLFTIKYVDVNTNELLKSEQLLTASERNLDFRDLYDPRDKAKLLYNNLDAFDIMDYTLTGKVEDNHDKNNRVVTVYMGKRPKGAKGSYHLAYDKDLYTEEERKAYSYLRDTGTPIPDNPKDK

[10] = system: Streptococcus sp. 'group A'; assay: growth inhibition of control SK(-) GAS strain, dose response, counter-screen for streptokinase expression inhibitor project, luminescence, kanamycin, BacTiterGlo, confirmation (AID 1900); assay type: functional, organism-based
[11] = molecular target: T3, Ubiquitin-conjugating enzyme E2 N; assay type: functional; remark: listed apart in the source
[12] = Shn3 3'UTR reporter inhibitors, dose response, cell-based, Clone20 osteoblasts, firefly luciferase, cherry-picked (AID 624132); assay type: functional;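 also: firefly luciferase luminescence from reporter carrying the Shn3 3'UTR in osteoblasts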
[13] = control 3'UTR Renilla luciferase suppression, dose response, counter-screen for Shn3 inhibitor project, cell-based, Clone20-Shn3RL, cherry-picked (AID 624133); assay type: functional
[14] = molecular target: Sphingosine 1-phosphate receptor 1 (Homo sapiens, UniProt P21453); assay type: functional;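 also: Tango beta-arrestin reporter U2OS cells stimulated with S1P near its EC80; inhibitor potency meaning antagonism of receptor activation by the natural agonist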
Chain of Sphingosine 1-phosphate receptor 1 (P21453 whole entry): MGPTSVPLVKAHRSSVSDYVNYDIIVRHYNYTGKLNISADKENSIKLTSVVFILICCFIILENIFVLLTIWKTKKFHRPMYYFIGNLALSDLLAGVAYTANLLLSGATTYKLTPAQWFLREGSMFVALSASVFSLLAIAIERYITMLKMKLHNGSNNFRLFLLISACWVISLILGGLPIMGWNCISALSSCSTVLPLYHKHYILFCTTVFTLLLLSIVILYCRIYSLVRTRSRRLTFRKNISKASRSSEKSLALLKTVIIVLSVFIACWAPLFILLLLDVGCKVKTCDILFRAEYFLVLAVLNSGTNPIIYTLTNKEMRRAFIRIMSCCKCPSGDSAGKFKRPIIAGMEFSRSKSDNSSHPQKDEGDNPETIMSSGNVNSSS

[15] = molecular target: T8, Sphingosine 1-phosphate receptor 4 (Homo sapiens, UniProt O95977); assay: Fluorescence dose response cell-based high throughput screening assay for antagonists of the Sphingosine 1-Phosphate Receptor 4 (S1P4). [Related pubchem assays: 1524 (Confirmation in triplicates.), 1510 (Primary screen.)]; assay type: functional
T8 sequence (O95977 whole entry): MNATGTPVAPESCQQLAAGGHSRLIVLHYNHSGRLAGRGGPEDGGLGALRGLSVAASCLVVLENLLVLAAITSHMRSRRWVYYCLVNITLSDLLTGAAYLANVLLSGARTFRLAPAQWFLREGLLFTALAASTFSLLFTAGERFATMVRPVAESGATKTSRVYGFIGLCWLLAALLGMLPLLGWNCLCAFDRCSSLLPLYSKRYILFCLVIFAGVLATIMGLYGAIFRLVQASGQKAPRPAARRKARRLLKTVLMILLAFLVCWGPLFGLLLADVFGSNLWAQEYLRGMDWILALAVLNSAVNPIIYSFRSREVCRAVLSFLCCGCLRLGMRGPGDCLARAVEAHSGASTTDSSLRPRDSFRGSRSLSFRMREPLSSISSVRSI

[16] = growth suppression of beta-catenin-knockout colon cells, dose response, cell-based, HCT116, human colon tumor (AID 1045); assay type: functional;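 also: HCT116 colon tumor cells with beta catenin knocked out; cells exposed to compound for 60 hours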
[17] = molecular target: T9, Microphthalmia-associated transcription factor (Homo sapiens, UniProt O75030); assay: TRPM1 promoter luciferase signal decrease, dose response, MITF inhibitor project, cell-based, SK-MEL-5, cherry-picked, set 3 (AID 493073); assay type: functional
T9 sequence (O75030 whole entry): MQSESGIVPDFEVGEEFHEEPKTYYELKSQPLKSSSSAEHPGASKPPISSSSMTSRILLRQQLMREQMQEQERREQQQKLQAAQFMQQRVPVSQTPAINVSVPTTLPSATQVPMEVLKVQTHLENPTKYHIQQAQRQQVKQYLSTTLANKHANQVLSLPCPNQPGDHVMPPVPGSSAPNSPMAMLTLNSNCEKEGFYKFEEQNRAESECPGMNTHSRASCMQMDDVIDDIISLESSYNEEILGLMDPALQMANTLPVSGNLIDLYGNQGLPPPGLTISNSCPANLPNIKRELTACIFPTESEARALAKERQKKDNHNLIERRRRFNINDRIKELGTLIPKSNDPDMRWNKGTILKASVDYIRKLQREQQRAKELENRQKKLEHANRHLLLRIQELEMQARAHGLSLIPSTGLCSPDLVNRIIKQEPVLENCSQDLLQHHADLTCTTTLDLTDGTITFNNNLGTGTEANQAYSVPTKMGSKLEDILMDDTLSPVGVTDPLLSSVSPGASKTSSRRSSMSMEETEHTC

[18] = HepG2 cell cytotoxicity, dose response, cytotoxicity control for Shn3 inhibitor project, CellTiter-Glo, cherry-picked (AID 624134); assay type: functional, cell-based
[19] = growth suppression of PTEN-null colon cells, dose response, cell-based, HCT116 PTEN knockout (AID 1047); assay type: functional;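 also: HCT116 colon tumor cells with PTEN knocked out; cells exposed to compound for 60 hours before readout; potency for loss of cell viability measured by luminescence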
[20] = molecular target: Neurotensin receptor type 1 (Homo sapiens, UniProt P30989); assay type: functional;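 also: Image-based confirmatory dose-response assay measuring agonist activity at NTR1; NTR1-expressing U2OS osteosarcoma cells imaged for beta-arrestin GFP spot formation; agonist potency where compounds increase beta-arrestin recruitment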
Chain of Neurotensin receptor type 1 (P30989 whole entry): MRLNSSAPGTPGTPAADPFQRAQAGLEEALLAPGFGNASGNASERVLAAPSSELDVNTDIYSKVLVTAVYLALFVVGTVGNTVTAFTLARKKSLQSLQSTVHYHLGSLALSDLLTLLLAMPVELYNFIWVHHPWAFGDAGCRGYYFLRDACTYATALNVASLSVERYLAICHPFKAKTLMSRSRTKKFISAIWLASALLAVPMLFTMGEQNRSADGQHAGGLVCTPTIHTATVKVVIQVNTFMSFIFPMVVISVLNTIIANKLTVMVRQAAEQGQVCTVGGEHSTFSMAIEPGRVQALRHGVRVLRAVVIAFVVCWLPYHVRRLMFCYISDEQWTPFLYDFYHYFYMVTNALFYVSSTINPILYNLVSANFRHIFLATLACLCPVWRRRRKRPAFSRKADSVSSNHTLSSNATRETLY

[21] = molecular target: T10, Heat shock factor protein 1 (Mus musculus, UniProt P38532); assay: inhibition of MG132-induced HSE-luciferase signal, confirmation, cell-based, NIH3T3, luminescence, dose retest (AID 2382); assay type: functional;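 also: NIH3T3 fibroblasts with HSF1-driven luciferase reporter stressed by proteasome inhibitor MG132; luminescence from HSF1-driven luciferase expression after 8 hours of MG132 stress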
T10 sequence (P38532 whole entry): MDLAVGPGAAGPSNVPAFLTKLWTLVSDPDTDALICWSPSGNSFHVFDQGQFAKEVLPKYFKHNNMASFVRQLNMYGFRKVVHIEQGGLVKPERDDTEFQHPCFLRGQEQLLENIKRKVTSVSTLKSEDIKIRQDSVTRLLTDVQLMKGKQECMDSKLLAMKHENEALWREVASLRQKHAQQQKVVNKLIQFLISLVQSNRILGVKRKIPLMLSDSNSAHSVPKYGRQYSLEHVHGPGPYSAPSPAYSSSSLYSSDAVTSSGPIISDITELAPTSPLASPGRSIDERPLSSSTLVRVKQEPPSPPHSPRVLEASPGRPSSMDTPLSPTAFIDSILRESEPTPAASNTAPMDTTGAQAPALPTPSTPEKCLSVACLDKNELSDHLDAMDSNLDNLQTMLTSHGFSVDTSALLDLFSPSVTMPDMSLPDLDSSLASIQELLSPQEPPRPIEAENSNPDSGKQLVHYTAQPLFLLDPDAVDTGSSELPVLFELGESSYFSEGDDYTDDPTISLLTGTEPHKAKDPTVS

In the case of N=C(N)c1ccc(/C=C/c2ccc(C(=N)N)cc2O)cc1, the EC50 [1] is reported as 4.77 µM (active), the EC50 [2] is reported as > 50 µM (active) and the AC50 [3] is reported as 0.708 µM (active). For the same compound, the IC50 [4] was 3.61 µM (active), the CC50 [5] was > 100 µM (active) and the AC50 (CAAX prenyl protease 2) was > 100 µM (inactive). For the same compound, the EC50 [6] was > 150 µM (inactive), the EC50 [7] was 0.529 µM (active) and the EC50 (Streptococcus) was > 150 µM (not active). The AC50 (Escherichia coli) was 37.7 µM (active), the IC50 (Bcl-2-related protein A1) was > 20 µM (inactive) and the AC50 (Trypsin) was 3.15 µM (active). The IC50 [8] was 39 µM (active), the EC50 [9] was > 99 µM (inactive) and the EC50 (Streptokinase A) was 20 µM (active). The EC50 [10] was 1.43 µM (active) and the IC50 [11] was 2.8 µM (active).

With COc1ccc(Oc2cc(NC(=O)c3nn(C)cc3[N+](=O)[O-])cc([N+](=O)[O-])c2)cc1 the AC50 [12] was 0.813 µM (active), the AC50 [13] was 5.01 µM (active) and the IC50 [14] was 17.4 µM (not active). The IC50 [15] was 1.08 µM (active), the EC50 [16] was 0.17 µM (active) and the AC50 [17] was 8.94 µM (active). For the same compound, the AC50 [18] was 21.1 µM (active), the EC50 [19] was 0.219 µM (active) and the EC50 [20] was 8.91 µM (active). The EC50 [21] was 8.9 µM (inconclusive).
